Laboratory results reported in patent US6787541B1, “Thieno-and furopyrimidine derivatives as A2A-receptor antagonists” (Vernalis Research Limited, priority 1999, dated 2004).

How the values were obtained:
[1] = target: T1, human adenosine A2A receptors expressed in HEK-293 cells (Homo sapiens, UniProt P29274); assay: Binding affinities at hA2A receptors, displacement of [3H]-CGS 21680
T1 construct: expressed in transfected cells; host or cells: HEK-293 cells

[2] = test system: haloperidol-induced deficits in locomotor activity in mice; assay: Haloperidol-induced hypolocomotion model; assay type: in vivo; settings: intraperitoneally at a dose of 10 mg/kg
Description: Haloperidol-induced Hypolocomotion Model
This approach is also considered a valid method for screening drugs with potential antiparkinsonian effects. Thus, the ability of novel adenosine antagonists to block haloperidol-induced deficits in locomotor activity in mice can be used to assess both in vivo and potential antiparkinsonian efficacy.
Female TO mice (25-30 g) obtained from TUCK, UK, are used for all experiments. Animals are housed in groups of 8 [cage size—40 (width)×40 (length)×20 (height)cm] under 12 hr light/dark cycle (lights on 08:00 hr), in a temperature (20±2° C.) and humidity (55±15%) controlled environment. Animals have free access to food and water, and are allowed at least 7 days to acclimatize after delivery before experimental use.
Liquid injectable haloperidol (1 ml Serenance ampoules from Baker Norton, Harlow, Essex, each containing haloperidol BP 5 mg, batch # P424) are diluted to a final concentration of 0.02 mg/ml using saline. Test compounds are typically prepared as aqueous suspensions in 8% Tween. […]
1.5 hours before testing, mice are administered 0.2 mg/kg haloperidol, a dose that reduces baseline locomotor activity by at least 50%. […] Horizontal locomotor activity is determined by placing the cages within a frame containing a 3×6 array of photocells linked to a computer, which tabulates beam breaks. […]

cataleptic responses = settings: cited from earlier work
Parkinsonian patients = settings: cited from earlier work

T1 sequence (P29274 whole entry): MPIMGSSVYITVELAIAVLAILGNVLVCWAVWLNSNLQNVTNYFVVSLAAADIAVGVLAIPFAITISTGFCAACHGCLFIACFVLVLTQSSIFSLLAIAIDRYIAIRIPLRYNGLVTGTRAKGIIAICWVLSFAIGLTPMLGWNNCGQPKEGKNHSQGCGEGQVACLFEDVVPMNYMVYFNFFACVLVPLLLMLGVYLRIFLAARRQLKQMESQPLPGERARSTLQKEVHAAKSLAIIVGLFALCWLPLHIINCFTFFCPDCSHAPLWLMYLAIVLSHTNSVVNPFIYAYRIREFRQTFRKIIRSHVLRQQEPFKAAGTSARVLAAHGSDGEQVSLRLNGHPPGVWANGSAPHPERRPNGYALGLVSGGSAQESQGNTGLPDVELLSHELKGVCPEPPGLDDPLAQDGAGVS

SMILES | melting point | Ki [1] | other results
CCCc1nc(C(=O)c2cccs2)c2sccc2n1 [Example 63, 2-n-Propylthieno[3,2-d]pyrimidin-4-yl 2-thienylmethanone] | 122 to 125 °C | 37 nM | –
COCCNc1nc(C(=O)c2cccs2)c2sccc2n1 [Example 65, 2-(2-Methoxyethylamino)thieno[3,2-d]pyrimidin-4-yl 2-thienylmethanone] | 135.6 to 135.9 °C | 21 nM | –
CCCc1nc(C(C#N)c2ccccn2)c2sccc2n1 (stereo not drawn) [Example 60, 2-n-Propyl-α-(2-pyridyl)thieno[3,2-d]pyrmidine-4-acetonitrile] | 185 to 187 °C | 237 nM | –
CN(C)c1ccc(C(=O)c2nc(C(F)(F)F)nc3ccsc23)s1 [Example 56, 5-Dimethylamino-2-thienyl 2-trifluoromethylthieno[3,2-d]pyrimidin-4-ylmethanone] | 188 to 191 °C | 309 nM | –
CN(C)c1nc(C(=O)c2ccccc2)c2sccc2n1 [Example 40, 2-Dimethylaminothieno[3,2-d]pyrimidin-4-yl phenylmethanone] | 116.5 to 117 °C | 295 nM | –
O=C(c1ccc(Cl)s1)c1nc(C(F)(F)F)nc2ccsc12 [Example 12, 5-Chloro-2-thienyl 2-trifluoromethylthieno[3,2-d]pyrimidin-4-ylmethanone] | 165 to 167 °C | 31 nM | –
CSc1nc(C(=O)c2cccs2)c2sccc2n1 [Example 48, 2-Methylthiothieno[3,2-d]pyrimidin-4-yl 2-thienylmethanone] | 189.7 to 190.6 °C | 151 nM | –
C=CCNc1nc(C(=O)c2cccs2)c2sccc2n1 [Example 59, 2-Allylaminothieno[3,2-d]pyrimidin-4-yl 2-thienylmethanone] | 142.1 to 142.9 °C | 18 nM | –
O=C(c1ccccc1)c1nc(Cl)nc2ccsc12 [Example 28, 2-Chlorothieno[3,2-d]pyrimidin-4-yl phenylmethanone] | 162.2 to 163.1 °C | 865 nM | –
O=C(c1cccs1)c1nc(N2CCOCC2)nc2ccsc12 [Example 77, 2-(4-Morpholinyl)thieno[3,2-d]pyrimidin-4-yl 2-thienylmethanone] | 199.9 to 200.5 °C | 97 nM | –
CC(C)Nc1nc(C(=O)c2cccs2)c2sccc2n1 [Example 61, 2-Isopropylaminothieno[3,2-d]pyrimidin-4-yl 2-thienylmethanone] | 134.8 to 135.6 °C | 21 nM | –
Cc1ccccc1C(=O)c1nc(C(F)(F)F)nc2ccsc12 [Example 11, 2-Methylphenyl 2-trifluoromethylthieno[3,2-d]pyrimidin-4-ylmethanone] | 116 to 118 °C | 330 nM | –
O=C(c1cccs1)c1nc(N2CCC(O)CC2)nc2ccsc12 [Example 86, 2-(4-Hydroxypiperidin-1-yl)thieno[3,2-d]pyrimidin-4-yl 2-thienylmethanone] | – | – | reversal of haloperidol-induced hypolocomotion [2]: significantly reversed
O=C(c1ccc(Br)s1)c1nc(C(F)(F)F)nc2ccsc12 [Example 46, 5-Bromo-2-thienyl 2-trifluoromethylthieno[3,2-d]pyrimidin-4-ylmethanone] | 180 to 182 °C | 101 nM | –
CCCn1c(=O)c2c(nc(/C=C/c3ccc(OC)c(OC)c3)n2C)n(CCC)c1=O [KF 17837, (E)-8-(3,4-dimethoxystyryl)-1,3-dipropyl-7-methylxanthine] | – | – | anticataleptic effects of a subthreshold dose of L-DOPA plus benserazide (cataleptic responses; in vivo): potentiated; catalepsy induced by haloperidol and reserpine (cataleptic responses; in vivo): reduced; cataleptic responses induced by intracerebroventricular administration of CGS 21680 (cataleptic responses; oral administration): significantly ameliorated
Cc1nc(C(C#N)c2ccccn2)c2sccc2n1 (stereo not drawn) [Example 64, 2-Methyl-α-(2-pyridyl)thieno[3,2-d]pyrimidine-4-acetonitrile] | 266 to 269 °C | 529 nM | –

SMILES | melting point | Ki [1] | other results
O=C(c1cccs1)c1nc(Cl)nc2ccsc12 [Example 44, 2-Chlorothieno[3,2-d]pyrimidin-4-yl 2-thienylmethanone] | 190.5 to 191 °C | 91 nM | –
CSc1nc(C(=O)c2cccs2)c2scc(C)c2n1 [Example 39, 7-Methyl-2-methylthiothieno[3,2-d]pyrimidin-4-yl 2-thienylmethanone] | 144 to 166 °C | 575 nM | –
O=C(c1cccs1)c1nc(NCCN2CCOCC2)nc2ccsc12 [Example 78, 2-(2-(4-Morpholinyl)ethylamino)thieno[3,2-d]pyrimidin-4-yl 2-thienylmethanone] | > 120 °C (dec.) | 46 nM | –
O=C(c1ccccc1)c1nc(NCCO)nc2ccsc12 [Example 72, 2-(2-Hydroxyethylamino)thieno[3,2-d]pyrimidin-4-yl phenylmethanone] | 114.1 to 114.9 °C | 126 nM | –
CCOc1nc(C(=O)c2cccs2)c2sccc2n1 [Example 73, 2-Ethoxythieno[3,2-d]pyrimidin-4-yl 2-thienylmethanone] | 164.6 to 165.4 °C | 48 nM | –
Cc1ccsc1C(=O)c1nc(C(F)(F)F)nc2ccsc12 [Example 42, 3-Methyl-2-thienyl 2-trifluoromethylthieno[3,2-d]pyrimidin-4-ylmethanone] | 201 to 202 °C | 26 nM | –
O=C(c1cccs1)c1nc(NCc2ccccn2)nc2ccsc12 [Example 95, 2-(2-Pyridylmethylamino)thieno[3,2-d]pyrimidin-4-yl 2-thienylmethanone] | 178.6 to 179.3 °C | 8 nM | –
CCc1nc(C(C#N)c2ccccn2)c2sccc2n1 (stereo not drawn) [Example 34, 2-Ethyl-α-(2-pyridyl)thieno[3,2-d]pyrimidine-4-acetonitrile] | 240 to 242 °C | 245 nM | –
O=C(c1ccccc1Cl)c1nc(C(F)(F)F)nc2ccsc12 [Example 8, 2-Chlorophenyl 2-trifluoromethylthieno[3,2-d]pyrimidin-4-ylmethanone] | 122 to 123 °C | 586 nM | –
O=C(c1cc(Br)cs1)c1nc(C(F)(F)F)nc2ccsc12 [Example 57, 4-Bromo-2-thienyl 2-trifluoromethylthieno[3,2-d]pyrimidin-4-ylmethanone] | 178 to 179 °C | 800 nM | –
Cc1cc(C(=O)c2nc(C(F)(F)F)nc3ccsc23)oc1C [Example 74, 4,5-Dimethyl-2-furyl 2-trifluoromethylthieno[3,2-d]pyrimidin-4-ylmethanone] | 185 to 186 °C | 90 nM | –
COc1ccc(C(=O)c2nc(C(F)(F)F)nc3ccsc23)s1 [Example 68, 5-Methoxy-2-thienyl 2-trifluoromethylthieno[3,2-d]pyrimidin-4-ylmethanone] | 160 to 162 °C | 105 nM | –
CC(C)(C)OC(=O)NCCNc1nc(C(=O)c2cccs2)c2sccc2n1 [Example 54, Tert-butyl (2-(4-(2-thienylcarbonyl)thieno[3,2-d]pyrimidin-2-yl)aminoethyl)carbamate] | 199.9 to 200.7 °C | 36 nM | –
Cc1ccc(C(=O)c2nc(C(F)(F)F)nc3ccsc23)cc1 [Example 29, 4-Methylphenyl 2-trifluoromethylthieno[3,2-d]pyrimidin-4-ylmethanone] | 127 to 129 °C | 539 nM | –
Cn1c(=O)c2[nH]cnc2n(C)c1=O [theophylline, 1,3-dimethylxanthine] | – | – | mean objective disability scores (Parkinsonian patients; 15 Parkinsonian patients, up to 12 weeks, 150 mg/day oral): significant improvements; patients reporting moderate or marked subjective improvement (Parkinsonian patients; of 15 Parkinsonian patients, up to 12 weeks, 150 mg/day oral): 11; serum theophylline levels (Parkinsonian patients; slow release oral theophylline preparation 150 mg/day, after one week): 4.44 mg/L
